Each structure is given as a SMILES string.

Series [1] has as its system NCI-H1299 cells. Kind of series: MTT cytotoxicity with/without NIR irradiation. It counts as cell-based, human. The following applies: without irradiation, 24 h. The protocol:
The cytotoxicity of B7H3/Dox@GNCs on tumor cells was assessed using the MTT assay. Briefly, NCI-H1299 cells (4 × 10^3 cells/well) were seeded in a 96-well plate and incubated for 12 h until the cells were completely attached. […] The cells were cultured for another 12 h and cell viability was determined using the MTT method.

The subject of series [2] is NCI-H1299 cells. Nature of the series: Cell cycle analysis (PI/RNase, flow cytometry). It counts as cell-based, human. The following applies: without irradiation, 1 μg/mL Dox equivalent, 24 h. On the procedure: Next, Dox, GNCs, B7H3@GNCs, Dox@GNCs, or B7H3/Dox@GNCs (1 μg/mL Dox equivalent) were added to the culture medium. […] After the cells were fixed, RNase A solution was added to degrade RNA, and cells were stained with PI. Finally, the samples were subjected to cell cycle analysis using flow cytometry. ROS was detected using the method described above, except that the cells were stained with DCFH-DA and analyzed using flow cytometry.

The nature of series [3]: Pharmacokinetics after single i.v. administration in rats (plasma Dox, LC-MS/MS). The series is classed as in vivo, Sprague–Dawley rats. The conditions noted are these: 3 mg/kg Dox equivalent, Mean ± SD, n = 6. On the procedure:
The pharmacokinetic properties of B7H3/Dox@GNCs were studied using 18 male Sprague–Dawley rats, weighing 200 ± 20 g. The rats were randomly divided into three groups (n = 6 per group) and administered Dox•HCl, Dox@GNCs, and B7H3/Dox@GNCs (3 mg/kg Dox equivalent dose) intravenously (i.v.) through the tail vein. Next, 300 μL blood samples were collected into heparinized tubes from the venous plexus at 0, 0.05, 0.13, 0.25, 0.5, 1, 1.5, 2, 4, 6, 8, 12, and 24 h. After centrifugation at 3000 × g for 15 min, the plasma samples were obtained and stored at – 80 ℃ until analysis.
(§1) The collected tissues were diced into small pieces and homogenized with three volumes of saline. Subsequently, 100 μL plasma and tissue homogenate samples were spiked with 10 μL epirubicin as the internal standard and vortex-mixed with 300 μL methanol for 5 min. After 15 min of centrifugation at 15,000 × g and 4 °C to precipitate proteins, 5 μL supernatant aliquots were analyzed using HPLC–MS/MS.

The nature of series [4]: Biodistribution of Dox in tumor-bearing mice. The series is classed as in vivo, BALB/c athymic nude male mice. The conditions noted are these: i.v. 3 mg/kg Dox. On the procedure: as §1, with “A xenograft model was established using BALB/c athymic nude male mice (weight: 20 ± 2 g) and NCI-H1299 cells. […] The collected tissues were rinsed in ice-cold physiological saline to remove the superficial blood and other debris and stored at − 80 ℃ until analysis. The” for “The”

Series [5] concerns NCI-H1299 cell-derived xenograft. Nature of the series: Antitumor efficacy in NCI-H1299 cell-derived xenograft. The following applies: 14 day treatment. It counts as in vivo, BALB/c nude mice. The protocol:
The heterotopic xenograft mouse model of NSCLC was established by subcutaneous injection of 1.0 × 10^7 NCI-H1299 cells into the right dorsal side of BALB/c nude mice. The tumor size and body weight of the mice were measured and recorded every 2 days. The tumor volume (mm^3) was calculated using the formula: V = W^2 × L/2, where the width (W) and length (L) were measured using an electronic caliper. When the tumor volume reached 80–100 mm^3, mice were administered i.v. Dox at a dose of 3 mg/kg in the indicated formulation at 3 day intervals via the tail vein until euthanized.

The subject of series [6] is NCI-H1299 lung tumor. Nature of the series: Histological examination (H&E, CD34 IHC) of tissues of xenograft-bearing mice. It counts as in vivo. The conditions noted are these: xenograft-bearing mice after i.v. administration.

In the case of `COc1cccc2c1C(=O)c1c(O)c3c(c(O)c1C2=O)C[C@@](O)(C(=O)CO)C[C@@H]3O[C@H]1C[C@H](N)[C@H](O)[C@H](C)O1.Cl` [Dox, doxorubicin hydrochloride], the IC50 in series [1] is 2.50 µg/mL. In addition, in series [2], the “effect on cell cycle” value was “stagnated in the S phase and G2/M phase”. Also, in series [3], the CL was 2.17 ± 0 mL/min/kg, the “MRT0-∞” value worked out at 9.43 ± 0.46 h, the T1/2 turned out to be 8.67 ± 0.34 h and the Vd is recorded as 1.64 ± 0.41 L/kg. Further, the “Dox concentrations in heart, liver, lungs, spleen and kidneys versus Dox@GNCs and B7H3/Dox@GNCs groups” value in series [4] is recorded as “significantly higher”. Besides, the “body weight of mice” value in series [5] is “drastic decrease in body weight”. Further, the tumor growth result in series [5] (xenograft mice, i.v.) was “suppressed tumor growth”. For the same molecule, in series [6], the “heart tissue histology (H&E)” value is given as “Dox-induced damage to the heart was observed”.

For the origin of these results see paper PMC10583352, “B7H3 targeting gold nanocage pH-sensitive conjugates for precise and synergistic chemo-photothermal therapy against NSCLC” (Journal of Nanobiotechnology, 2023).
